“Also recorded” adds a separate entry of the source. Like-named read-outs stand apart in the source and are kept apart here.
Key:
rat aortic rings [1] = assay: Contractile response of rat aortic rings to phenylephrine; type: cell-based; settings: 24 h; for contractile response to phenylephrine of rings incubated with corticosterone and antisense: corticosterone 10 nmol/L + antisense 3 μmol/L, compared with nonsense oligomers; for effect on the ability of 11-dehydro-corticosterone to amplify the contractile response to phenylephrine: 11-dehydro-corticosterone 100 nmol/L, antisense 3 μmol/L vs nonsense
Experimental: Male Sprague-Dawley (150-200 g) rats were anesthetized with pentobarbital (50 mg/kg IP), and a median sternotomy was performed followed by the rapid removal of the thoracic aorta. The adventitia was removed, but the endothelium was left intact. The aorta was cut into 2-3 mm rings and individual rings were placed into a single well of a twenty four well culture plate and incubated at 37° C. under 95% 02-5% CO2. Each well contained 1 mL of DMEM/F12 containing 1% fetal bovine serum, streptomycin (100 μg/ml), penicillin (100 units/ml) and amphotericin (0.25 μg/ml). Aortic rings were incubated for 24 hours prior to contractility measurements with the following combinations of steroids, and antisense/nonsense oligonucleotides (3 μmol/L):
Antisense phosphorothioate oligonucleotides, targeted to block either 11β-HSD2 or 11β-HSD1 gene expression, were obtained from Research Genetics, Huntsville Ala. Antisense oligomers complementary to 20 bp sequences spanning the ribosome binding/translation start site were used. Oligomer sequences were: 5′-CATAACTGCCGTCCAACAGC-3′ (SEQ ID NO. 1) for 11β-HSD1 Antisense and 5′-AGGCCAGCGCTCCATGACTT-3′ (SEQ ID NO 2) for 11β-HSD2 antisense. In control experiments the corresponding sense sequence was used as the nonsense oligomer. Antisense and nonsense oligomers were added directly to each well at 20 μg/10:1 sterile H2O per well for a final concentration of 3 μmol/L.
For contraction measurements, aortic rings were suspended by tungsten wires with 1 g of tension and placed in a vessel bath containing serum free DMEM/F12 media at 37° C. aerated with 95% O2-5% CO2, at pH 7.4. Vessels were equilibrated for 20 minutes and then tested with phenylephrine (1 nmol/L-10 μmol/L). Although phenylephrine is structurally not a catecholamine, it is considered to be a functional catecholamine as it activates both a and P adrenoceptors. Due to its favorable stability characteristics, it is widely used as a catecholamine substitute in experiments of this nature. The intensity of contraction was assessed by use of a Narishige micromanipulator and model FT03 force transducer (Grass Instrument Co. West Warwick, R.I.). Measurements were recorded on computer using the Labview 4.1 Virtual Instrument System (National Instruments, Austin, Tex.).

rat aortic rings [2] = assay: Conversion of 3H-corticosterone to 11-dehydrocorticosterone by aortic rings; type: cell-based; settings: 3H-corticosterone 10 nM, antisense 3 μM, 24 hrs, compared with nonsense oligomers
Experimental: (§1) The effects of 11β-HSD1 and 11β-HSD2 antisense on the inter-conversion of ^3H-corticosterone and ^3H-11-dehydro-corticosterone by aortic rings was also determined. Rings (2-3 mm) obtained in a similar manner as those in the contraction studies, were incubated in 1 ml DMEM/F12 media containing 1% FBS at 37° C. under 95% O2-5% CO2 in 24-well culture plates. Rings were incubated for 24 hours with:
(i) ^3H-corticosterone (10 nmol/L)±11β-HSD2 or 11β-HSD1 antisense (3 μmol/L); control groups received nonsense oligomers. The amount of ^3H-11-dehydro-corticqsterone in the incubation medium after 24 hrs was then measured. The effects of 11β-HSD1 antisense/nonsense were measured in quadruplicate (n=6 aortic rings per well) and the effects of 11β-HSD2 antisense/nonsense in duplicate (n=8 aortic rings per well),
Incubation media was collected, ran through a Sep-Pak and eluted with 3 mls of methanol, the eluate was then dried under nitrogen and reconstituted in 500:1 methanol. The aortic rings were dried and weighed. The steroids present in the eluate were separated by high-pressure liquid chromatography with a Dupont Zorbax C8 column eluted at 44° C. at a flow rate of 1 mL/min using 55% methanol for 10 minutes. Steroids were observed by monitoring radioactivity on-line with a Packard Radiomatic Flo-One/Beta Series A-500 counter connected to a Dell Optiflex 425 S/L computer. […]

[3] = test system: cultured rat vascular endothelial and smooth muscle cells; assay: RT-PCR analysis of 11β-HSD isoform expression in cultured cells; type: cell-based; settings: similar protocol
Source text: Since 11β-HSD2 appears to exist only in endothelial cells, this observation supports a role for the action of glucocorticoids in affecting endothelial cell function. […] Further experiments to determine whether antisense oligomers down-regulate mRNA and protein expression of their respective 11β-HSD isoform under conditions in which they enhance contractile responses in aortic rings will be done.

[4] = target: T1, 11β-HSD1-reductase activity (Rattus norvegicus, UniProt P16232); assay: Metabolism of 3H-11-dehydrocorticosterone back to corticosterone by aortic rings; type: cell-based; settings: 24 hours, compared with nonsense oligomers
T1 construct: from tissue; host or cells: rat aortic rings (intact tissue, 24 h incubation)
Experimental: as §1
(ii) ^3H-11β-dehydro-corticosterone (10 nmol/L)±11β-HSD1 antisense (3 μmol/L); this experiment was performed in duplicate (n=10 aortic rings per well). Control groups were incubated with the appropriate nonsense oligomer. ^3H-corticosterone in the incubation medium after 24 hrs was then measured. In this experiment, aortic rings were also analyzed for ^3H-corticosterone content. Rings from duplicate incubations (total n=20) were blotted dry, pooled and homogenized in 50% methanol using a Polytron. The homogenates were then centrifuged, extracted as below using Sep-Paks and injected onto a HPLC system for analysis.
Incubation media was collected, ran through a Sep-Pak and eluted with 3 mls of methanol, the eluate was then dried under nitrogen and reconstituted in 500:1 methanol. The aortic rings were dried and weighed. […] Steroids were observed by monitoring radioactivity on-line with a Packard Radiomatic Flo-One/Beta Series A-500 counter connected to a Dell Optiflex 425 S/L computer. […]

11β-HSD2 [5] = target: T2, 11β-HSD2 (Ovis aries, UniProt P50168); assay: 11β-HSD2 enzyme activity in sheep kidney microsomes; type: biochemical
T2 construct: incubating sheep kidney microsomal fraction (6.5 μg protein) with 50 nM corticosterone; from tissue; host or cells: sheep kidney microsomal fraction
T2 sequence (P50168 1-427): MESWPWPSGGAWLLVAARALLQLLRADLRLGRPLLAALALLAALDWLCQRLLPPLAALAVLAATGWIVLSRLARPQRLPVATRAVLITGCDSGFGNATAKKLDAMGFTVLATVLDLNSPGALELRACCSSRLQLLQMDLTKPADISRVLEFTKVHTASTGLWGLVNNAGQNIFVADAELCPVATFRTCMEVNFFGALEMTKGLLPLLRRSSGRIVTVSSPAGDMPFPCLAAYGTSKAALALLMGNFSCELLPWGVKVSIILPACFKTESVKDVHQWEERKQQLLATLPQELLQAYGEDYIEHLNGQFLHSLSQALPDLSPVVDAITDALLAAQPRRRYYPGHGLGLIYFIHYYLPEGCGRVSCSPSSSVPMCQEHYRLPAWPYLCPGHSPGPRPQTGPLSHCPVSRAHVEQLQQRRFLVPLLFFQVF
Source text: The enzymatic reaction was termninated by addition of methanol and synthesis of 11-dehydro-corticosterone was quantitated by HPLC as described above.

11β-HSD1 = 11β-HSD1 (Homo sapiens, UniProt P28845); settings: Monder et al., 1993; Pearson Murphy et al., 1981; cited from earlier work
11β-HSD2 [6] = target: T3, 11β-HSD2 (Homo sapiens, UniProt P80365); settings: Monder et al., 1993; Pearson Murphy et al., 1981; cited from earlier work
T3 sequence (P80365 1-405): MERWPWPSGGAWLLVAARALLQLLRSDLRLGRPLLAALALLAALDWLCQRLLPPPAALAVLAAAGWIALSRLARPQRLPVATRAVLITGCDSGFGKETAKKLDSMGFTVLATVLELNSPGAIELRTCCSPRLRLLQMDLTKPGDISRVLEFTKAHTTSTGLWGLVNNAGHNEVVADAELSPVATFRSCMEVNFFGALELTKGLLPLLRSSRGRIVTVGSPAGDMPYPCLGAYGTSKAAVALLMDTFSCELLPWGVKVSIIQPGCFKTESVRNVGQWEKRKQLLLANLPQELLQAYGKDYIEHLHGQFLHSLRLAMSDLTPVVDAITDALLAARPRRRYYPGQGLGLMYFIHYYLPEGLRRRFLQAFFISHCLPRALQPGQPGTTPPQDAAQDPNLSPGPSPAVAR

11β-HSD1 Reductase = 11β-HSD1 Reductase (Rattus norvegicus, UniProt P16232); assay: 11β-HSD1 reductase assay in rat Leydig cell homogenates;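 further: rat Leydig cell homogenate incubated 20 min at 37 °C, pH 7.4, with tritiated 11-dehydro-corticosterone and 3 mM NADPH, product measured by HPLC, inhibition from triplicate dose–response curves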
Experimental: (§2) Each enzyme reaction (described below) was stopped by adding 750 μL MeOH. After centrifugation, an aliquot of supernatant was analyzed by HPLC using a DuPont Zorbax C8 column.
(§3) 11β-HSD1 dehydrogenase was assayed by incubating homogenates (13,000 cells equivalent) with 600 nM [^3H]-B (0.5 μCi) in the presence of 3 mM NADP, 50 mM Tris-HCl; pH 8.4 at 37° C. for 10 minutes in a total volume of 250 μL. 11β-HSD1 reductase was assayed by incubating homogenates (52,000 cells equivalent) with 600 nM [^3H]-11-dehydro-corticosterone in presence of 3 mM NADPH, 50 mM Tris-HCl; pH 7.4 at 37° C. for 20 minutes in a total volume of 250 μL.
(§4) Each concentration was tested in triplicate and the dose response curve, showing percentage inhibition versus log concentration of steroid was plotted. The data fitted a log-linear straight line.

11β-HSD1 Dehydrogenase = 11β-HSD1 Dehydrogenase (Rattus norvegicus, UniProt P16232); assay: 11β-HSD1 dehydrogenase assay in rat Leydig cell homogenates; type: biochemical; set-up: Freshly prepared rat Leydig cell homogenates were chosen since they provide a rich and reliable source of both 11β-HSD1 dehydrogenase and reductase; from tissue; host or cells: rat testicular Leydig cells, homogenate;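 further: tritiated corticosterone conversion by 11β-HSD1 dehydrogenase in Leydig homogenates with 3 mM NADP at pH 8.4, 37 °C for 10 min, products resolved by HPLC, inhibition relative to uninhibited enzyme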
Experimental: as §2, §3, §4

normotensive SD rats = settings: infused into normotensive SD rats; cited from earlier work
[7] = listed as 11β-HSD1 antisense oligomers

Chain of 11β-HSD1 Dehydrogenase (P16232 whole entry, the tested form may be a part): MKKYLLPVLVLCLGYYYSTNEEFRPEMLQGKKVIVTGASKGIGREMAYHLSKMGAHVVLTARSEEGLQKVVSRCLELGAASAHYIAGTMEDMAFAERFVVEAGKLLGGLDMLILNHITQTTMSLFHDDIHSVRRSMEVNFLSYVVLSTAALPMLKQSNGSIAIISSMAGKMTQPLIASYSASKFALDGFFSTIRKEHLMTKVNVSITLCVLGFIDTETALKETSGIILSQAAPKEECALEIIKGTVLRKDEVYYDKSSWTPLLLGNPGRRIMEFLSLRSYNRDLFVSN
T1 sequence (P16232 whole entry): as the sequence (P16232 whole entry, the tested form may be a part) above
Chain of 11β-HSD1 Reductase (P16232 whole entry): as the sequence (P16232 whole entry, the tested form may be a part) above
Chain of 11β-HSD1 (P28845 whole entry, species assumed): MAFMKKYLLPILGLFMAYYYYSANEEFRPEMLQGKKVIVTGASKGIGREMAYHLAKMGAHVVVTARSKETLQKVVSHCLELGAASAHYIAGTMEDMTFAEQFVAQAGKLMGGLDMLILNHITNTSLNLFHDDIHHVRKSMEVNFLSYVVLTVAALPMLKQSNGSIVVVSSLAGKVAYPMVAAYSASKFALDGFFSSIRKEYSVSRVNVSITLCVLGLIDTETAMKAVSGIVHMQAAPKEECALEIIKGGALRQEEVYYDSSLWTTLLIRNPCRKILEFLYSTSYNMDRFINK

Question: Which “contractile response to phenylephrine of rings incubated with corticosterone and antisense” value (rat aortic rings [1]) does the source give for “5′-AGGCCAGCGCTCCATGACTT-3′ (antisense AGGCCAGCGCTCCATGACTT; all phosphorothioate, sugars by position and methylation of C not given here) [11β-HSD2 antisense]” here?
Answer: statistically significant increase; also recorded: significantly (P<0.05) increased

Question: What about the “reduction in the conversion of corticosterone to 11-dehydrocorticosterone” value (rat aortic rings [2]) of the same compound?
Answer: 24%

Question: What about the “expression of the respective 11β-HSD enzyme isoform” value [3] of the same compound?
Answer: down-regulate the expression

Question: For “5′-CATAACTGCCGTCCAACAGC-3′ (antisense CATAACTGCCGTCCAACAGC; all phosphorothioate, sugars by position and methylation of C not given here) [11β-HSD1 antisense]”, which “effect on the ability of 11-dehydro-corticosterone to amplify the contractile response to phenylephrine” value (“effect on the ability” below) (rat aortic rings [1]) is on record?
Answer: significantly attenuated

Question: What about the “effect on the ability” value (rat aortic rings [1]; listed as 11β-HSD1 antisense oligomer) of the same compound?
Answer: attenuates

Question: What about the “effect on the ability” value (rat aortic rings [1]; [7]) of the same compound?
Answer: attenuated

Question: What about the “contractile response to phenylephrine of rings incubated with corticosterone and antisense” value (rat aortic rings [1]) of the same compound?
Answer: significantly increased

Question: And the “contractile response to phenylephrine of rings incubated with corticosterone and antisense” value (rat aortic rings [1]; [7])?
Answer: enhanced the ability of corticosterone to amplify the contractile response

Question: And the “reduction in the conversion of corticosterone to 11-dehydrocorticosterone” value (rat aortic rings [2])?
Answer: 21%

Question: And the “production of 3H-corticosterone from 3H-11-dehydrocorticosterone” value [4]?
Answer: significantly reduce; also recorded: markedly reduced; also recorded: marked decrease

Question: And the “expression of the respective 11β-HSD enzyme isoform” value [3]?
Answer: down-regulate the expression

Question: With `C[C@]12CCC(=O)C=C1CC[C@@H]1[C@@H]2[C@@H](O)C[C@]2(C)C(=O)CC[C@@H]12` [11β-OH-Androstenedione, 4-Androsten-11β-ol-3,17-dione] as the compound, how does the IC50 (11β-HSD2 [5]) read?
Answer: 7.8 µM

Question: What about the “Sheep kidney 11β-HSD2 [S] = 50 nM” value (11β-HSD2 [5]; sheep kidney microsomes, corticosterone substrate, progesterone and androgen derivatives) of the same compound?
Answer: weak inhibitor

Question: What about the “inhibition of 11β-HSD1 isoform” value (11β-HSD1) of the same compound?
Answer: poor inhibitor

Question: And the “inhibition of 11β-HSD2 isoform” value (11β-HSD2 [6])?
Answer: poor inhibitor

Question: What about the IC50 (11β-HSD1 Reductase) of the same compound?
Answer: > 100 µM

Question: And the IC50 (11β-HSD1 Dehydrogenase)?
Answer: > 100 µM

Question: What about the “Leydig Cell 11β-HSDl Dehydrogenase [S] = 600 nM” value (11β-HSD1 Dehydrogenase; rat Leydig cell homogenates, 600 nM corticosterone, progesterone and androgen derivatives) of the same compound?
Answer: inactive

Question: With `CC(=O)[C@H]1CC[C@H]2[C@@H]3CC[C@H]4C[C@H](O)CC[C@]4(C)[C@H]3[C@@H](O)C[C@]12C` [11β-OH-allopregnanolone, 5α-Pregnan-3α,11β-diol-2O-one] as the compound, how does the IC50 (11β-HSD2 [5]; sheep kidney microsomes, corticosterone substrate, progesterone and androgen derivatives, read-out: Sheep kidney 11β-HSD2 [S] = 50 nM) read?
Answer: 0.12 µM

Question: What about the “inhibitors of 11β-HSD2 (summary in words)” value (11β-HSD2 [5]; summary of the screening) of the same compound?
Answer: potent inhibitors; also recorded: high potency

Question: What about the blood pressure (normotensive SD rats) of the same compound?
Answer: increased BP

Question: And the IC50 (11β-HSD1 Reductase; read-out: Leydig Cell 11β-HSD1 Reductase [S] = 600 nM, rat Leydig cell homogenates, 600 nM 11-dehydro-corticosterone, progesterone and androgen derivatives)?
Answer: > 100 µM

Question: And the IC50 (11β-HSD1 Dehydrogenase; rat Leydig cell homogenates, 600 nM corticosterone, progesterone and androgen derivatives, read-out: Leydig Cell 11β-HSDl Dehydrogenase [S] = 600 nM)?
Answer: 3 µM

Question: What about the “inhibitors of 11β-HSD1 dehydrogenase (summary in words)” value (11β-HSD1 Dehydrogenase; summary of the screening) of the same compound?
Answer: potent inhibitors; also recorded: high potency

Source: US20070093460A1, “Methods of using selective 11beta-HSD inhibitors to treat gluocorticoid associated states” (priority 2005, published 2007)
